Where two headings read alike, the source gives them in different places.
Legend:
[1] = test system: yohimbine toxicity; test: Potentiation of the yohimbine toxicity in mice (Method 2); format: in vivo, mouse (NMRI); conditions: 1 hour before yohimbine hydrochloride 20 mg/kg s.c.; for LD50, potentiation of yohimbine toxicity (Method 2, mouse): oral, deaths after 18 hours
Description: The compounds I and their acid addition salts potentiate the toxicity of yohimbine in mice. Antidepressants of type I administered orally in a dose of 0.5 to 100 mg/kg increased the death rate for an otherwise non-fatal dose of yohimbine hydrochloride (20 mg/kg, administered subcutaneously).
2. Potentiation of the yohimbine toxicity in mice
The toxicity of yohimbine, a blocker of presynaptic alpha-receptors, is potentiated by antidepressants (literature: R. M. Quinton, Brit. J. Pharmac. 21, 55-56 (1963). Male mice, NMRI strain, 20-22 g, were arranged in test groups of n=10. The test preparation was suspended in 1% strength aqueous Tylose® slime and administered orally in a volume of 10 ml/kg. Control received only the vehicle.
After a pretreatment time of 1 hour, all animals received a dose of yohimbine hydrochloride, which dose, when administered alone, is non-toxic (20 mg/kg, administered subcutaneously). The dead animals were determined 18 hours after this treatment. (Calculation of the LD50 by probit analysis).

[2] = test system: stereotypes; test: Test of the promotion of stereotypes in rats (Method 3); format: in vivo, rat (Wistar); conditions: for ED50: read-out: ED50, dose at which half the maximum possible number of points is reached (Method 3, rat)
Description: 3. Test of the promotion of stereotypes in rats
The tests were carried out on 130-140 g male Wistar rats. The stereotypes were assessed at 15 minute intervals during the first two hours after administration of the substance, and then at half-hourly intervals up to the 6th hour. The scale below was used. […]
The number of points were calculated as a total number per 6 hours, divided by the number of observations.
The ED50 dose is the dose at which half the maximum possible number of points (5 points multiplied by the number of observations) is reached.

[3] = test system: tetrabenazine ptosis; test: Effect on tetrabenazine ptosis (TBZ), mouse (Method 1); format: in vivo, mouse (NMRI); conditions: po, 0.5 h
Description: (§1) The appropriate amount of a homogenate of the particular substance in aqueous carboxymethylcellulose is fed to 6 male animals by means of a gavage one hour before treatment with tetrabenazine (40 mg/kg), intraperitoneally).
(§2) 1. Test of the effect on tetrabenazine ptosis (TBZ)
(§3) Test on mice (NMRI), male, weight 19-21 g, or on rats (Wistar), male, about 120 g body weight. Preparation administered orally, homogenized in 1% strength tylose, 1 hour before tetrabenzine, 40 mg/kg, administered subcutaneously (N=6/dose). During the test, 6 animals are present together in one container. To test for upper lid ptosis, the animals are placed individually on the table top. The extent of the ptosis (0-4 points) is assessed and is expressed as a percentage of the maximum score achievable. Evaluation is carried out 30 minutes after administration of tetrabenazine.

[4] = test system: tetrabenazine ptosis; test: Effect on tetrabenazine ptosis (TBZ), rat (Method 1); format: in vivo, rat (Wistar); conditions: po, 0.5 h
Description: as §1, §2, §3

[5] = read-out: ED50, 50% reduction in the degree of ptosis (Method 1), mouse, p.o., 1 hour before tetrabenazine 40 mg/kg
[6] = Mus musculus, read-out: ED50, 50% reduction in the degree of ptosis (Method 1, mouse)
[7] = Rattus norvegicus, read-out: ED50, 50% reduction in the degree of ptosis (Method 1, rat)

Row | Structure (SMILES) | LD50, potentiation of yohimbine toxicity (Method 2, mouse) [1] [mg/kg] | ED50 ([2]; po, rat, p.o., 6 hours) [mg/kg] | ED50 [3, 6] [mg/kg] | further results
1 | OC(C(c1cccc(Cl)c1)n1ccnc1)C12CC3CC(CC(C3)C1)C2 (centres unmarked) [Example 105, 1-(1-Adamantyl)-2-(3-chlorophenyl)-2-(1-imidazolyl)-ethanol] | 8.5 | > 30 | – | –
2 | CN1Cc2c(N)cccc2C(c2ccccc2)C1 (centres unmarked) [Nomifensin, reference compound] | 8.6 | – | – | ED50 [3, 5]: 0.72 mg/kg; ED50 ([4]; read-out: ED50, 50% reduction in the degree of ptosis (Method 1), rat, p.o., 1 hour before tetrabenazine 40 mg/kg): 2.7 mg/kg; ED50 ([2]; Rattus norvegicus, 6 h): 11.9 mg/kg
3 | OC1(C(c2ccc3ccccc3c2)n2ccnc2)C2CC3CC(C2)CC1C3 (centres unmarked) [Example 126] | 3.2 | – | 3 | –
4 | OC1(C(c2cccc(Cl)c2)n2ccnc2)C2CC3CC(C2)CC1C3 (racemic) [Example 25, (3-chlorophenyl)-(2-hydroxy-2-adamantyl)-(1-imidazolyl)-methane] | 4.4 | – | 0.79 | ED50 [4, 7]: 10 mg/kg; stereotypes (Method 3, rat), in words ([2]; rat, up to 300 mg/kg p.o.): no stereotypes
5 | Cc1cccc(C(n2ccnc2)C2(O)C3CC4CC(C3)CC2C4)c1 (centres unmarked) [Example 106, (2-Hydroxy-2-adamantyl)-1-imidazolyl-(3-tolyl)-methane] | 7 | > 30 | – | ED50 [3, 5]: 1.5 mg/kg
6 | O=C(O)C(O)C(O)C(=O)O.OC1(C(c2cccc(Cl)c2)n2ccnc2)C2CC3CC(C2)CC1C3 (single isomer, unassigned; (+)) [Example 168a, (+)-(3-chlorophenyl)-(2-hydroxy-2-adamantyl)-(1-imidazolyl)-methane hydrogen tartrate] | 4.6 | – | 2.5 | ED50 [4, 7]: 5.5 mg/kg; ED50 ([2]; Rattus norvegicus, po, 6 h): 30 mg/kg
7 | CC(C)(C)C(O)C(c1ccc(-c2ccccc2)cc1)n1ccnc1 (centres unmarked) [Example 4, 1-(4-Biphenyl)-3,3-dimethyl-1-(1-imidazolyl)-butan-2-ol] | 5.3 | > 30 | – | –
8 | COc1ccc(C(n2ccnc2)C2(O)C3CC4CC(C3)CC2C4)cc1OC (centres unmarked) [Example 120] | – | – | 3 | ED50 (Method 2, mouse) ([1]; p.o., given as ED50, 1080 min): 3 mg/kg

Reference: patent publication US5100890A, “Arylmethylazoles and their salts, agents which contain these compounds, and their use” (priority 1985, dated 1992)
